According to US20240376484A1, “TRANSFORMING CANNABACEAE CELLS” (Cibus US LLC, priority 2021, published 2024):

Columns and labels:
cannabis EAs [1] = assay: Regeneration of non-transformed cannabis EAs on different SIMs, number of meristems per explant; type: cell-based; conditions: added to SIM with TDZ
Excerpt: Various experiments were directed to testing different culture media and different concentrations of components of the culture media, such as SIMs with different TDZ concentrations. […] Some experiments were directed to testing different SIMs on cannabis EAs and with different light conditions. For example, the seeds were sterilized and imbibed, and the EAs were extracted. In some experiments, the EAs were not transformed, and between 40 and 50 EAs were regenerated on each different SIMs. In further experiments, a subset of the EAs were plated on an SIM without plant growth regulators, such as TDZ, and the remaining EAs were plated on an SIM with 10 mg/L TDZ, with different groups of each subset being exposed to different light conditions.
The images 1680, 1681, 1683, 1684 show resulting explants regenerated in SIM with 1 mg/L TDZ, 2.5 mg/L TDZ, 5 mg/L TDZ, and 10 mg/L TDZ, respectively.
FIG. 16B is a graph illustrating the explants regenerated in the different SIMs as previously described by FIG. 16A and the number of resulting meristems.
In some experiments, additional TDZ concentrations were tested and different combinations of components in the SIM were tested.

cannabis EAs [2] = assay: Regeneration of cannabis EAs on SIM with 10 mg/L TDZ under different light conditions; type: cell-based; conditions: for explants with 3+ meristems: 10 mg/L TDZ
Excerpt: Various experiments were directed to testing different culture media and different concentrations of components of the culture media, such as SIMs with different TDZ concentrations. […] Based on various experiments, it is believed that cannabis plants have strong apical dominance, and breaking the apical dominance will increase transformation efficiency and result in more transgenic events. […] Some experiments were directed to testing different SIMs on cannabis EAs and with different light conditions. For example, the seeds were sterilized and imbibed, and the EAs were extracted. In some experiments, the EAs were not transformed, and between 40 and 50 EAs were regenerated on each different SIMs. In further experiments, a subset of the EAs were plated on an SIM without plant growth regulators, such as TDZ, and the remaining EAs were plated on an SIM with 10 mg/L TDZ, with different groups of each subset being exposed to different light conditions. Tables 2 and 3 summarize example media and light conditions:
The B, G, R values in Table 3 include blue, green, and red light values, along with the intensity of the light.
FIGS. 16F and 16G are graphs illustrating the results of the different light conditions on the number of meristems per explant in cultures without plant growth regulators (FIG. 16F) and with 10 mg/L TDZ (FIG. 16G). […] For example, around half of the 10 mg/L TDZ had multiple meristems, with the light II conditions resulting in 40% explants with 3+ meristems, […] explants with 3+ meristems, and light I conditions resulting in 12% explants with 3+ meristems.

Compound | impact of SIM additive on regeneration (cannabis EAs [1]) | share of explants with multiple meristems (cannabis EAs [2]; 10 mg/L TDZ in SIM, FIG. 16G) | explants with 3+ meristems (cannabis EAs [2]; light I conditions) | explants with 3+ meristems (cannabis EAs [2]; light II conditions) | explants with 3+ meristems (cannabis EAs [2]; light II conditions (printed a second time))
Adenine Hemisulfate | did not have a significant positive impact | – | – | – | –
O=C(O)Cc1c[nH]c2ccccc12 [IAA, indoleacetic acid] | did not have a significant positive impact | – | – | – | –
O=C(Nc1ccccc1)Nc1cnns1 [TDZ, thidiazuron] | – | around half | 12% | 40% | 24%
